In patent US11116765B2 (GRIFOLS, S.A., priority 2014, dated 2021):
Like-named read-outs stand apart in the source and are kept apart here.

Assays:
M. avium = details: incubation of M. avium with antibiotic; cited from earlier work
M. abscessus 105 = details: 100 mcg/mL
M. avium 104 [1] = details: THP-1 human macrophages, 200 mcg/mL
M. avium 104 [2] = details: THP-1 human macrophages, 20 mcg/mL
M. avium 104 [3] = details: 100 mcg/mL
[4] = tested on: Mycobacterium avium subsp hominissuis (MAH) MAC104 strain; experiment: MAH lung infection in C57BL/6 mice, intranasal treatment; format: in vivo; details: 3 weeks

| SMILES | effect on M. avium biofilm formation (M. avium) | Biofilm Colonization, Time: 4 Days (M. abscessus 105) | Colonization in macrophages, Time: 4 days (M. avium 104 [1]) | Colonization in macrophages, Time: 4 days (M. avium 104 [2]) | Biofilm Colonization, Time: 4 Days (M. avium 104 [3]) | effect on the growth of MAH in the lungs of mice compared with saline control [4] |
| --- | --- | --- | --- | --- | --- | --- |
| [H]/N=C(/N)N[C@H]1[C@H](O)[C@@H](O)[C@H](O[C@@H]2O[C@@H](C)[C@](O)(C=O)[C@H]2O[C@@H]2O[C@@H](CO)[C@H](O)[C@@H](O)[C@@H]2NC)[C@@H](N/C(N)=N\[H])[C@@H]1O [streptomycin] | increase | – | – | – | – | – |
| CC1(C)S[C@@H]2[C@H](NC(=O)[C@H](N)c3ccccc3)C(=O)N2[C@H]1C(=O)O [ampicillin] | no effect on biofilm | – | – | – | – | – |
| O=C(O)c1cn(C2CC2)c2cc(N3CCNCC3)c(F)cc2c1=O [Ciprofloxacin, ciprofloxacin] | – | 3.0 ± 0.5 × 10^7 | 5.0 ± 0.3 × 10^4 | 1.1 ± 0.4 × 10^4 | 4.0 ± 0.3 × 10^7 | no significant effect |
